Experiments:
[1] = tested on: NL4-3 and TR712 virions; assay: Viral maturation, immunoblot of viral lysates produced in 293T-cells; assay type: cell-based; settings: NL4-3 and TR712 virions produced with amprenavir
Protocol: NL4-3 and TR712 viruses were generated in 293T-cells with or without amprenavir, lysed and subjected to SDS-PAGE immunoblotting analysis for gp120, p55 Gag, p24 CA, Blam-Vpr, and free Blam. […] SupT1 cells were mock infected or infected with mature or immature NL4-3 or TR712 virions containing Blam-Vpr. After loading of cells with CCF2 dye, fusion was analyzed by flow cytometry. Percentages are the fraction of cells displaying increased cleaved CCF2 fluorescence, indicating virion fusion.
The effect of protease inhibitors on viral maturation was assessed first. NL4-3 viruses carrying a β-lactamase-Vpr (BlaM-Vpr) reporter protein were produced in 293T-cells in the presence or absence of the HIV protease inhibitor amprenavir.

[2] = tested on: SupT1 CD4 T leukemic cells; assay: Syncytia formation in NL4-3-infected SupT1 cells; assay type: cell-based; settings: 5 μM protease inhibitor, 2.5 days
Protocol: (A) The spinoculation procedure. (B) Flow cytometry of viable CD4 versus CD8-T-cells in HLAC three days after spinoculation in the presence of the indicated drugs. Data represent live-gated cells, based on the forward-scatter versus side-scatter profile of the complete culture. Of note, apoptotic cells were included in the analysis of caspases activity and cytokine expression (FIG. 10E, F). Drugs concentrations: AZT 5 μM; Efavirenz 100 nM; AMD3100 250 nM; T20 10 μg/ml. The data are representative results of six independent experiments with six different donors. […] (C) Highly permissive SupT1 CD4 T leukemic cells were infected with NL4-3 and cultivated for 3 days to allow substantial infection but not syncytia formation. […] After 2.5 days of additional culture, the extent of syncytia formation in each sample was evaluated by light microscopy. […] Results are representative of three independent experiments.

[3] = tested on: HLAC CD4 T-cells; assay: HLAC cells overlaid on virus-producing 293T-cells, CD4 T-cell depletion; assay type: cell-based, human; settings: TR712-transfected 293T-cells in the presence of amprenavir
Protocol: HLACs were infected with viruses derived from the indicated HIV proviral clones in the presence of the indicated concentrations of AZT or in the absence of drugs. Six days after infection the amount of p24^gag in the medium was determined by FLAQ assay. The amount of p24^gag in the medium after infection wash (day 0) was defined as 0%. […] Viral incorporation of endogenous A3G was measured by immunoblot analysis of purified NL4-3 and Δvif NL4-3 virions harvested from 1 ml of supernatant from infected HLACs. Doses reflect 1:10 dilutions. […] Resting or activated CFSE-labeled cells were co-cultured with cells infected with WT or Δvif NL4-3 in the presence or absence of the following drugs, AZT (5 μM), AMD3100 (250 nM), the NNRTIs Efavirenz (100 nM), and Nevirapine (1 μM), or the integration inhibitors Raltegravir (30 μM) and 118-D-24 (60 μM). Data are representative of four independent experiments performed with cells from four different donors. (E) A method to assess indirect killing in HLAC with non-infectious HIV-1 clones. Fresh human tonsil is processed into HLAC and cells are cultured in suspension. At the same time 293T-cells are transfected with 1 μg HIV-1 DNA in a 24-well plate. After 12 hours, 293T-cells are washed and overlayed with 3×10^6 HLAC cells in RPMI in the presence of the indicated drugs. Virus-producing 293T-cells directly interact with target overlaying HLAC cells. After 24 hours, the HLAC suspensions are collected from wells and analyzed by flow cytometry. […] HLAC were cultured with the indicated drugs 3 hours before co-culture with 293T-cells. Percentages are normalized to the number of viable CD4 T-cells in HLAC overlaying non-transfected 293T-cells in the presence of AZT, as depicted by (*). Error bars represent standard error of the mean of three experiments performed using cells from three different HLAC donors.

[4] = tested on: SupT1 cells; assay: Virion-based fusion assay (BlaM-Vpr); assay type: cell-based; settings: virions produced in the presence of amprenavir
Protocol: The virion-based fusion assay is performed in three successive steps: (1) incubation of target cells with virions, (2) loading of target cells with the CCF2/AM dye, and (3) development and detection of the BlaM reaction. SupT1 cells (5×10^5) were incubated with BlaM-Vpr containing virions (400 ng of p24^gag at 37° C. for 2 hours, washed in CO2-independent medium (GibCo BRL), and loaded with CCF2/AM dye as described by the manufacturer (Invitrogen). Briefly, 2 μl of CCF2/AM (1 mM) was mixed with 8 μl of 0.1% acetic acid containing 100 mg/ml Pluronic-F127R and 1 ml of DEEM to constitute the loading solution. Cells were incubated in 100 μl of loading solution for 1 hour at room temperature. After two washes with DEEM, the BlaM reaction was executed for 16 hours at room temperature in 200 μl of DMEM supplemented with 10% FBS and 2.5 mM probenecid, a nonspecific inhibitor of anion transport (Sigma Pharmaceuticals). Finally, the cells were washed once in DMEM and fixed in a 2% solution of paraformaldehyde. The change in emission fluorescence of CCF2 after cleavage by the BlaM-Vpr chimera was monitored by flow cytometry with LSR2 (Becton Dickinson, San Jose, Calif.). Data were collected with DiVa software and analyzed with FlowJo software (Treestar, San Carlos, Calif.).

[5] = tested on: CFSE-labeled CD4 T-cells; assay type: cell-based, human; settings: NL4-3-infected effector cells
Protocol: (A) Experimental strategy to assess indirect cell killing in HIV-1-infected human lymphoid cultures. Fresh human tonsil tissue from a single donor is processed into HLAC, and then separated into two fractions. One fraction is challenged with HIV-1 and cultured for 6 days, allowing viral spread. On day 5, the uninfected fraction is treated with AZT (5 μM) and labeled with CFSE (1 μM). On day 6, the infected and CFSE-labeled (i.e., uninfected) cultures are mixed and co-cultured in the presence of AZT. […] After 6 days of co-culturing, the number of viable CFSE-positive cells is determined by flow cytometry. (B) Flow cytometry analysis of the mixed HLACs. Indirect killing is determined by gating on live CFSE-positive cells in the mixed cultures. Effector cells are either infected or uninfected cells. […] CFSE-labeled cells mixed with uninfected or infected cells were cultured in the presence of 5 μM AZT alone or together with 250 nM AMD3100. Data represent live CFSE-positive cells 6 days after co-culture with infected or uninfected effector cells. […] The absolute numbers of viable CFSE-positive CD4 and CD8 T-cells and B cells were determined. Percentages are normalized to the number of viable CFSE-positive cells co-cultured with uninfected cells in the presence of AZT, as depicted by (*). Error bars represent standard deviations of three samples from the same donor. […] See also FIG. 3.
Human tonsil or splenic tissues from routine tonsillectomies were obtained from the National Disease Research Interchange and the Cooperative Human Tissue Network and processed as previously described (Jekle et al., 2003, J Virol 77:5846-5854). In brief, tonsils or spleen were minced, passed through a 40-μm cell strainer, and cultured in 96-well U-bottomed polystyrene plates (2×10^6 cells/well) in medium (200 μl/well) consisting of RPMI 1640 supplemented with 15% heat-inactivated fetal bovine serum, 100 μg/ml gentamicin, 200 μg/ml ampicillin, 1 mM sodium pyruvate, 1% nonessential amino acids (Mediatech), 2 mM L-glutamine, and 1% fungizone (Invitrogen). All HIV-1 infections were carried out with 20-50 ng of HIV-1 p24^gag. Cells were incubated with the virus for 12-16 h, washed extensively, and supplemented with fresh medium. After day 5, infections were monitored by measuring p24gag levels in the culture medium using a FLAQ assay (Hayden et al., 2003, AIDS 17:629-631). Infected and uninfected cultures were manipulated as described for individual experiments. In “indirect killing” assays, unless otherwise stated, drugs were used at the following concentrations: 5 μM AZT; 250 nM AMD3100; 10 μg/ml T20; 100 nM Efavirenz; 1 μM Nevirapine; 30 μM Raltegravir; 60 μM 118-D-24; 5 μM Amprenavir; 5 μM Saquinavir; 5 μM Indinavir. CFSE-labeled cells were activated with PHA (5 μg/ml) and IL-2 (20 ng/ml) 2 days before mixing with effector cells.
Uninfected cells (5×10^6/ml) were labeled with 1 μM CFSE (Molecular Probes C1157), treated with 5 μM AZT for 24 h, and co-cultured with effector cells. CFSE readily diffuses into cells, where intracellular esterases cleave the acetate groups, converting it to a fluorescent, membrane-impermeable dye.

CC(C)CN(C[C@@H](O)[C@H](Cc1ccccc1)NC(=O)O[C@H]1CCOC1)S(=O)(=O)c1ccc(N)cc1 [Amprenavir]
Gag processing in virions [1]: an uncleaved form of p55 Gag polypeptide rather than the mature p24 CA protein accumulated
syncytia formation / cell-cell fusion [2]: do not block syncytia formation
CD4 T-cell killing by TR712 viruses [3]: prevented CD4 T-cell killing by TR712 viruses
decline in fusogenic properties of immature NL4-3 viruses [4]: 90%
fusion capacity retained by immature TR712 [4]: 40%
indirect killing (loss) of resting CFSE-labeled CD4 T-cells [5]: inhibit indirect killing
